Experimental data published in patent publication US10168342B2, “Lipid probes and uses thereof” (THE SCRIPPS RESEARCH INSTITUTE, priority 2015, dated 2019).
Like-named read-outs stand apart in the source and are kept apart here.

Key:
[1] = biological target: T1, AEA-DA lipid probe targets in Neuro2a cells (Mus musculus, UniProt Q9CPQ3); settings: for SILAC ratio, TOMM22 (Q9CPQ3): Neuro2a cells, AEA-DA probe
T1 sequence (Q9CPQ3 1-142): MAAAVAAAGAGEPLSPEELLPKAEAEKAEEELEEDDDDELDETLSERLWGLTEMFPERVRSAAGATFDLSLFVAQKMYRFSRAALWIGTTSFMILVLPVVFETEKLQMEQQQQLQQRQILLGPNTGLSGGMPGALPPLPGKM

[2] = biological target: T2, AEA-DA lipid probe targets in Neuro2a cells (Mus musculus, UniProt Q9CR67)
T2 sequence (Q9CR67 1-247): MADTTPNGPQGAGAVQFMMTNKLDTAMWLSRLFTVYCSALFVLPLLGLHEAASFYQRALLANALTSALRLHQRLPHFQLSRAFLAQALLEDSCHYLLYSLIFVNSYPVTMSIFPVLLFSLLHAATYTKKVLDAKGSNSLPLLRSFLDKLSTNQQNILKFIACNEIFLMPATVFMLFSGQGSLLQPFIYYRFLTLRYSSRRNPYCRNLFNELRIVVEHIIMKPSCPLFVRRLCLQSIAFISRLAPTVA

[3] = biological target: T3, AEA-DA lipid probe targets in Neuro2a cells (Mus musculus, UniProt Q9Z2Z6)
T3 sequence (Q9Z2Z6 1-301): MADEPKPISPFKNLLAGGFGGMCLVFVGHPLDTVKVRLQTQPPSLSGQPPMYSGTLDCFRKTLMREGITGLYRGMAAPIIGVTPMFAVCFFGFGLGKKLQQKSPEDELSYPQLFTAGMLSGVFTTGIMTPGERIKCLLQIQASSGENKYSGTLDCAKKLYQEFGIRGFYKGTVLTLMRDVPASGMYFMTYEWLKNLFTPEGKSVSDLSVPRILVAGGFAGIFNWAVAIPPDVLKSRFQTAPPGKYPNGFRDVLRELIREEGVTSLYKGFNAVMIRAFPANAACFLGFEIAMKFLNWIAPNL

[4] = biological target: AEA-DA lipid probe targets in Neuro2a cells (Mus musculus, UniProt Q9ET22)
[5] = biological target: T4, AEA-DA lipid probe targets in Neuro2a cells (Mus musculus, UniProt Q0VGU4)
T4 sequence (Q0VGU4 24-617): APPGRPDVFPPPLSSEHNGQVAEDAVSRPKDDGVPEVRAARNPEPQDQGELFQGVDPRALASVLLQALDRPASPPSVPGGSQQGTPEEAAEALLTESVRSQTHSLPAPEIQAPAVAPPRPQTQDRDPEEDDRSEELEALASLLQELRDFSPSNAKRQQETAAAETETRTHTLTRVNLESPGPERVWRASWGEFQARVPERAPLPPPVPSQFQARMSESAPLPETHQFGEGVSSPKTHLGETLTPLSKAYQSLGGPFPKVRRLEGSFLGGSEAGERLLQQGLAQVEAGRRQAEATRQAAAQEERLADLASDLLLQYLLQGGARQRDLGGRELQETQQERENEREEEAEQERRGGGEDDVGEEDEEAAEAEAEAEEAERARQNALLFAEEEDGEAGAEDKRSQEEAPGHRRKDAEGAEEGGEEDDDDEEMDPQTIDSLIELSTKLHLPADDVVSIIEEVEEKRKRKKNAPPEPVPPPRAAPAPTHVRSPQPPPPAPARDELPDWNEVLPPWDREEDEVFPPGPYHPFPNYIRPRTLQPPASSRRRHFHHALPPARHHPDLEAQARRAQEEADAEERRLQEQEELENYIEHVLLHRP

[6] = biological target: T5, AEA-DA lipid probe targets in Neuro2a cells (Mus musculus, UniProt Q9CQF9)
T5 sequence (Q9CQF9 29-505): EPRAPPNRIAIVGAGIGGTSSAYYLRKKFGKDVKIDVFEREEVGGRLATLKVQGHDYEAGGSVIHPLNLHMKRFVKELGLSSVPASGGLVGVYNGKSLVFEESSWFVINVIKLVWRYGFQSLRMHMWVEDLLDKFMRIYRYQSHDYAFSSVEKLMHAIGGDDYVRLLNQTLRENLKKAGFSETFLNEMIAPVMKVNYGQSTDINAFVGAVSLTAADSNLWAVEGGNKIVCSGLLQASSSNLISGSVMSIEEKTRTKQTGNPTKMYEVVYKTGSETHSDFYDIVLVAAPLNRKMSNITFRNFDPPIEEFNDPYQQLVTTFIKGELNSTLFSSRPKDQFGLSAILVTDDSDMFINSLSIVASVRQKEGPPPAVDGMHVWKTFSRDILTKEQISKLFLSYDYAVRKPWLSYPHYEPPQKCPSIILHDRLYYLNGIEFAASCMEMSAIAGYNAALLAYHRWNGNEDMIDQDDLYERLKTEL

[7] = biological target: AEA-DA lipid probe targets in Neuro2a cells (Mus musculus, UniProt Q9EPE9)
[8] = biological target: T6, AEA-DA lipid probe targets in Neuro2a cells (Mus musculus, UniProt P10649)
T6 sequence (P10649 1-218): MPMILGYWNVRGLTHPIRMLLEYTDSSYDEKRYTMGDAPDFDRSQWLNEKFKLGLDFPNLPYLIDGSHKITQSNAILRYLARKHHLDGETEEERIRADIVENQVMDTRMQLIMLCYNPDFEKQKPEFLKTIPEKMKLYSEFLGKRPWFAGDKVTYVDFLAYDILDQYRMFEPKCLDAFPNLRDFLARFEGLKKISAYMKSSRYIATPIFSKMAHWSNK

Sequence of AEA-DA lipid probe targets in Neuro2a cells (Mus musculus, UniProt Q9ET22) (Q9ET22 37-506): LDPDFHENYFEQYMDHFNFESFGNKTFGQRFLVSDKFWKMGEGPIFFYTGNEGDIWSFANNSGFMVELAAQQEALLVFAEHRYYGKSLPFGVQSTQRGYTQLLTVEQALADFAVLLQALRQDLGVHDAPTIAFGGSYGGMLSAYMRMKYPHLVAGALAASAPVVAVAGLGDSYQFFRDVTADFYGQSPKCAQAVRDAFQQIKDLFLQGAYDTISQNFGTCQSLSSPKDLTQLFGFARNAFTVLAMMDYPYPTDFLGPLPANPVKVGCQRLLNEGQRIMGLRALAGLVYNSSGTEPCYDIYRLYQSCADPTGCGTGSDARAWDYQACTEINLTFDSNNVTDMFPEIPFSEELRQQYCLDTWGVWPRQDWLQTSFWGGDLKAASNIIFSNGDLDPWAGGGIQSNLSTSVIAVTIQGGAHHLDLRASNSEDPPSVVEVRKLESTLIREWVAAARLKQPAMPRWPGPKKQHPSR
Sequence of AEA-DA lipid probe targets in Neuro2a cells (Mus musculus, UniProt Q9EPE9) (Q9EPE9 whole entry): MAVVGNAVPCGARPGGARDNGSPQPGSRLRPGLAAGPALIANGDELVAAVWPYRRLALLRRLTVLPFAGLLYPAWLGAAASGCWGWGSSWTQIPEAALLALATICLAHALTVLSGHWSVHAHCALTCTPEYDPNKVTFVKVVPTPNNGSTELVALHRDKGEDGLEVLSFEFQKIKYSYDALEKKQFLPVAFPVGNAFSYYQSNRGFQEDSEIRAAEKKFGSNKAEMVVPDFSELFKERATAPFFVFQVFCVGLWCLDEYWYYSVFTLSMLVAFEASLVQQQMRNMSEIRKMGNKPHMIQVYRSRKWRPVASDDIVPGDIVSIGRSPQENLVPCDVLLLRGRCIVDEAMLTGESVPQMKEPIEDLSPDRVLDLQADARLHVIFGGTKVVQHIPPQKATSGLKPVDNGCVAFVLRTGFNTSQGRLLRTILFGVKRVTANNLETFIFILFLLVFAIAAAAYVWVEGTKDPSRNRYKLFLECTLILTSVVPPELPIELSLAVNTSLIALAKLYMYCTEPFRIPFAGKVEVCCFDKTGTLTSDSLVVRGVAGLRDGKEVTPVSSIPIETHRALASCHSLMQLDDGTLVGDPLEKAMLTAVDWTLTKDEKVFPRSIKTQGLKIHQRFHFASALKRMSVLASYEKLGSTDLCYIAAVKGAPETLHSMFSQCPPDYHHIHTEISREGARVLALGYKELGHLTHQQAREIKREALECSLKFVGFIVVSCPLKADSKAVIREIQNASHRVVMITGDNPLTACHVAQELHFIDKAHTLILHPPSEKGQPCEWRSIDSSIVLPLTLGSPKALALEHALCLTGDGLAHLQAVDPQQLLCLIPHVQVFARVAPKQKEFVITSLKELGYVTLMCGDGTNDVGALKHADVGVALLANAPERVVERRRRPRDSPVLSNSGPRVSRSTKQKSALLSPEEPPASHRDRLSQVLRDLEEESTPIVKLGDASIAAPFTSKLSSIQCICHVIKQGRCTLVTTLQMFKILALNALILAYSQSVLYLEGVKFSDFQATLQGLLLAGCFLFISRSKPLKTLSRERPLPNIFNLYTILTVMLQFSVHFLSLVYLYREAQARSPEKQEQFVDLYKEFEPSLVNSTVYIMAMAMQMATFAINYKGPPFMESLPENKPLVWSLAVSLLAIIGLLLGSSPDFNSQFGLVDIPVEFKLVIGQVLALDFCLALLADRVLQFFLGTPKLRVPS

In the case of `CCCCC/C=C\C/C=C\C/C=C\C/C=C\CCCC(=O)NCCO` [AEA, anandamide, reference compound], the “SILAC ratio, TOMM22 (Q9CPQ3)” value ([1]; competitor 200 μM) is reported as 1.4, the “SILAC ratio, Tomm22” value ([1]; competitor 200 μM) is reported as 1.4 and the “SILAC ratio, Tmem33” value ([2]; competitor 200 μM) is reported as 1.8. The “SILAC ratio Slc25a20” value ([3]; competitor 200 μM) was 1.6, the “SILAC ratio Dpp7” value ([4]; competitor 200 μM) was 1.4 and the “SILAC ratio, Vgf” value ([5]; competitor 200 μM) was 1.0. For the same molecule, the “SILAC ratio, Pcyox1” value ([6]; competitor 200 μM) was 1.7, the “SILAC ratio Atp13a1” value ([7]; competitor 200 μM) was 1.4 and the “SILAC ratio, Gstm1” value ([8]; competitor 200 μM) was 2.3.
`O=C(/C=C/c1cccnc1)NCCCCC1CCN(C(=O)c2ccccc2)CC1` [FK-866, reference compound] was tested, and the “SILAC ratio, TOMM22 (Q9CPQ3)” value ([1]; competitor 25 μM) was 1.1, the “SILAC ratio, Tomm22” value ([1]; competitor 25 μM) was 1.1 and the “SILAC ratio, Tmem33” value ([2]; competitor 25 μM) was 1.2. The “SILAC ratio Slc25a20” value ([3]; competitor 25 μM) was 1.4, the “SILAC ratio Dpp7” value ([4]; competitor 25 μM) was 1.0 and the “SILAC ratio, Vgf” value ([5]; competitor 25 μM) was 1.1. For the same molecule, the “SILAC ratio, Pcyox1” value ([6]; competitor 25 μM) was 1.2, the “SILAC ratio Atp13a1” value ([7]; competitor 25 μM) was 1.1 and the “SILAC ratio, Gstm1” value ([8]; competitor 25 μM) was 1.5.
For `CN1CCN(C(=O)c2c(-c3ccccc3)c3cc([N+](=O)[O-])ccc3n2C)CC1` [KML110, (1-Methyl-5-nitro-3-phenyl-1H-indol-2-yl)(4-methylpiperazin-1-yl)methanone], the “SILAC ratio, Tomm22” value ([1]; competitor 25 μM) was 1.3, the “SILAC ratio, Tmem33” value ([2]; competitor 25 μM) was 1.4 and the “SILAC ratio Slc25a20” value ([3]; competitor 25 μM) was 1.5. The “SILAC ratio Dpp7” value ([4]; competitor 25 μM) was 1.5, the “SILAC ratio, Vgf” value ([5]; competitor 25 μM) was 1.4 and the “SILAC ratio, Pcyox1” value ([6]; competitor 25 μM) was 1.5. The “SILAC ratio Atp13a1” value ([7]; competitor 25 μM) was 1.7 and the “SILAC ratio, Gstm1” value ([8]; competitor 25 μM) was 2.2.
With `CN1CCN(C(=O)c2[nH]c3ccc([N+](=O)[O-])cc3c2-c2ccccc2)CC1` [MJN228, (4-Methylpiperazin-1-yl)(5-nitro-3-phenyl-1H-indol-2-yl)methanone] the “SILAC ratio, TOMM22 (Q9CPQ3)” value ([1]; competitor 25 μM) was 1.2, the “SILAC ratio, Tomm22” value ([1]; competitor 10 μM) was 1.1 and the “SILAC ratio, Tomm22” value ([1]; competitor 25 μM) was 1.2. The “SILAC ratio, Tomm22” value ([1]; competitor 50 μM) was 1.2, the “SILAC ratio, Tomm22” value ([1]; competitor 100 μM) was 1.8 and the “SILAC ratio, Tmem33” value ([2]; competitor 10 μM) was 1.3. For the same molecule, the “SILAC ratio, Tmem33” value ([2]; competitor 25 μM) was 1.5, the “SILAC ratio, Tmem33” value ([2]; competitor 50 μM) was 1.5 and the “SILAC ratio, Tmem33” value ([2]; competitor 100 μM) was 2.0. For the same molecule, the “SILAC ratio Slc25a20” value ([3]; competitor 10 μM) was 1.4, the “SILAC ratio Slc25a20” value ([3]; competitor 25 μM) was 1.4 and the “SILAC ratio Slc25a20” value ([3]; competitor 50 μM) was 2.4. For the same molecule, the “SILAC ratio Slc25a20” value ([3]; competitor 100 μM) was 3.4, the “SILAC ratio Dpp7” value ([4]; competitor 10 μM) was 1.0 and the “SILAC ratio Dpp7” value ([4]; competitor 25 μM) was 0.7. The “SILAC ratio Dpp7” value ([4]; competitor 50 μM) was 1.0, the “SILAC ratio Dpp7” value ([4]; competitor 100 μM) was 0.7 and the “SILAC ratio, Vgf” value ([5]; competitor 10 μM) was 1.3. The “SILAC ratio, Vgf” value ([5]; competitor 25 μM) was 1.3, the “SILAC ratio, Vgf” value ([5]; competitor 50 μM) was 1.1 and the “SILAC ratio, Vgf” value ([5]; competitor 100 μM) was 1.0. For the same molecule, the “SILAC ratio, Pcyox1” value ([6]; competitor 10 μM) was 1.2, the “SILAC ratio, Pcyox1” value ([6]; competitor 25 μM) was 1.4 and the “SILAC ratio, Pcyox1” value ([6]; competitor 50 μM) was 1.6. The “SILAC ratio, Pcyox1” value ([6]; competitor 100 μM) was 2.2, the “SILAC ratio Atp13a1” value ([7]; competitor 10 μM) was 1.3 and the “SILAC ratio Atp13a1” value ([7]; competitor 25 μM) was 1.7. The “SILAC ratio Atp13a1” value ([7]; competitor 50 μM) was 2.0, the “SILAC ratio Atp13a1” value ([7]; competitor 100 μM) was 2.2 and the “SILAC ratio, Gstm1” value ([8]; competitor 10 μM) was 1.7. For the same molecule, the “SILAC ratio, Gstm1” value ([8]; competitor 25 μM) was 1.7, the “SILAC ratio, Gstm1” value ([8]; competitor 50 μM) was 2.1 and the “SILAC ratio, Gstm1” value ([8]; competitor 100 μM) was 2.6.
For `C=CCN(C)CCCCCCOc1ccc(C(=O)c2ccc(Br)cc2)c(F)c1` [Ro 48-8071, reference compound], the “SILAC ratio, TOMM22 (Q9CPQ3)” value ([1]; competitor 25 μM) was 1.0, the “SILAC ratio, Tomm22” value ([1]; competitor 25 μM) was 1.0 and the “SILAC ratio, Tmem33” value ([2]; competitor 25 μM) was 1.1. The “SILAC ratio Slc25a20” value ([3]; competitor 25 μM) was 1.2, the “SILAC ratio Dpp7” value ([4]; competitor 25 μM) was 0.3 and the “SILAC ratio, Vgf” value ([5]; competitor 25 μM) was 0.9. For the same molecule, the “SILAC ratio, Pcyox1” value ([6]; competitor 25 μM) was 1.8, the “SILAC ratio Atp13a1” value ([7]; competitor 25 μM) was 1.2 and the “SILAC ratio, Gstm1” value ([8]; competitor 25 μM) was 1.4.
